Patent publication US7879792B2, “Synthetic peptide inhibitors of thrombin and thrombin activation of protease activated receptors 1 and 4” (The Regents of the University of Michigan, priority 2005, dated 2011)
Where a SMILES comes first, the peptide text is derived from it.

What was measured:
[1] = stability testing in MES buffer (pH 6.5); type: physicochemical; details: 37° C., read-out: t1/2 (min) MES Buffer (pH 6.5)
Method: (§1) Stability testing of the various compounds was performed in buffer, intestinal perfusate, and an intestinal homogenate preparation to assess the potential oral availability of these compounds. Initial studies prepared the tissue for stability studies. The buffer used in stability testing is 10 mM MES (pH 6.5) containing 135 mM NaCl, and 5 mM KCl. To collect intestinal perfusate from rats, male Sprague Dawley rats, 8 to 10 weeks old, weighing 250 to 350 g were fasted 15 to 18 hours with water given ad libitum. Anesthesia was administered by intramuscular injection of pentobarbital/ketamine (40 mg/kg and 80 mg/kg, respectively). The rats were placed on a warming pad under a surgical lamp to maintain body temperature and jejunal intestinal segments were exposed through a midline, abdominal incision. Approximately 20 cm segment of the jejunum (2 to 4 cm distal to the ligament of Treitz) was cannulated and the intestinal segments were perfused with 10 mM MES (pH 6.5) containing 135 mM NaCl, and 5 mM KCl at a flow-rate of 0.5 ml/min at 37° C. using a constant infusion pump (Harvard Apparatus, South Natick, Mass.). The collected perfusate was stored at −80° C. until use for ex vivo stability studies. After collection, the perfused intestinal segments were flushed with ice-cold 0.15 M KCl solution and the animal was euthanized and the jejunal intestinal segment detached. The inner intestinal tissue layers are scraped out and homogenized in MES buffer (pH 6.5) in a ratio of 1 part of intestinal tissue to 5 parts buffer. Total protein content of the perfusate and the homogenate were determined using a Biorad protein assay kit. The intestinal homogenate samples were used immediately or rapidly frozen at −80° C. until stability analysis.
The actual stability testing protocol is as follows: A 0.1 ml aliquot of the synthetic peptide solution (1 mg/ml) was added to 0.9 ml of MES buffer, pH 6.5, intestinal perfusate, or intestinal homogenate at 37° C. Samples were mixed by vortexing and 100 microliter aliquots were removed over a 60 to 90 minute period for analysis of breakdown products. […]

[2] = stability testing in intestinal perfusate; type: in vitro ADME; details: male, Sprague Dawley, rat, intestinal (jejunal) perfusate, pH 6.5, rat
Method: as §1
The actual stability testing protocol is as follows: A 0.1 ml aliquot of the synthetic peptide solution (1 mg/ml) was added to 0.9 ml of MES buffer, pH 6.5, intestinal perfusate, or intestinal homogenate at 37° C. Samples were mixed by vortexing and 100 microliter aliquots were removed over a 60 to 90 minute period for analysis of breakdown products. The 100 microliter sample aliquots were diluted 10 fold with water and subjected to solid phase extraction using a Waters Oasis HLB column. Briefly, the columns were preconditioned by passing 1 ml of MeOH and 1 ml of water over the column, and 1 ml of sample was added to the column. The column was washed with 5% methanol:95% water solution to remove proteins and salts, then eluted with 1 ml of 100% methanol. The methanol was removed by vacuum, and the sample was reconstituted in mobile phase for LC/MS/MS analysis.
LC/MS/MS analysis was performed on a HP1100 HPLC (Hewlett Packard) interfaced with a Quattro II MS/MS detector (Waters/Micromass). For the HPLC separation, a 10 μL aliquot of sample in a mobile phase consisting of an equal volume mixture of acetonitrile/water containing 0.5% formic acid was injected onto a 150 mm×2.2 mm, 5 μm C8 column (Higgins Analytical Inc) and developed at a flow rate of 0.2 ml/min for 5 minutes. The MS detector was used in single ion recording mode at a cone voltage of 50 Volts.

[3] = system: normal human citrated plasma; test: thrombin clotting time (TCT); type: biochemical; details: 1 nM thrombin
Method: The influence of the various peptide formulations used in the present invention on established coagulation-based assays was determined. The activated partial thromboplastin time (APTT) is performed by mixing 0.05 ml normal human citrated plasma with 0.05 ml activated partial thromboplastin reagent purchased from Organon Teknika, Research Triangle Park, NC in the absence or presence of a peptide inhibitor. After incubation for 5 min at 37° C., the mixture is recalcified with 0.05 ml of 30 mM calcium chloride and the time to clot formation is measured in an Amelung KC4A instrument (Sigma Chemical Corp, St. Louis, Mo.) (Hasan et al. Thrombosis and Haemostasis. 82, 1182-1187 (1999)). The prothrombin time (PT) is performed by mixing 0.05 ml normal human citrated plasma with 0.05 ml Simplastin (Organon Teknika, Research Triangle Park, NC) followed by incubation for 3 min at 37° C. in the absence or presence of a peptide inhibitor. At the addition of 0.05 ml of 30 mM calcium chloride, the time to clot formation is measured in an KC4A instrument (Sigma Chemical Corp, St. Louis, Mo.) (Hasan et al. Thrombosis and Haemostasis. 82, 1182-1187 (1999)). The thrombin clotting time (TCT) is performed by adding 0.1 ml normal human citrated plasma in the absence or presence of a peptide inhibitor and 0.05 ml of a α-thrombin solution such that the final concentration of the thrombin in the entire mixture was 1 nM. Upon addition of the thrombin, the time to clot formation is measured in an KC4A instrument (Sigma Chemical Corp, St. Louis, Mo.).

| half-life at 0.1 mg/ml [1] | half-life at 0.1 mg/ml ([2]; 37° C., read-out: t1/2 (min) Intestinal Perfusate) | half-life at 0.1 mg/ml ([2]; read-out: t1/2 in intestinal perfusate (converted)) | SMILES | peptide concentration with significant prolongation (p<0.05) of the TCT [3] |
| --- | --- | --- | --- | --- |
| 179 min | 111 min | 120 min | N=C(N)NCCC[C@@H](N)C(=O)N1[C@H](C(=O)N2CCC[C@H]2C(=O)NCC(=O)N[C@@H](Cc2ccccc2)C(N)=O)C[C@@H]2CCCC[C@@H]21 [rOicPGF, D-Arg-Oic-Pro-Gly-Phe, reference compound] (HELM PEPTIDE1{[dR].[O=C([C@@H]1C[C@@H]2CCCC[C@@H]2N1[*:1])[*:2]].P.G.F.[am]}$$$$V2.0) | – |
| – | – | – | Cc1ccc(C[C@H](NC(=O)[C@@H](C)NC(=O)[C@@H]2CCCN2C(=O)[C@@H]2C[C@@H]3CCCC[C@@H]3N2C(=O)[C@H](N)CCCNC(=N)N)C(N)=O)cc1 [rOicPaF(p-Me), D-Arg-Oic-Pro-D-Ala-Phe(p-Me)] (HELM PEPTIDE1{[dR].[O=C([C@@H]1C[C@@H]2CCCC[C@@H]2N1[*:1])[*:2]].P.[dA].[Cc1ccc(C[C@H](N[*:1])C(=O)[*:2])cc1].[am]}$$$$V2.0) | 0.78 µM |
